Results from patent US20260335293A1, “USE OF NOVEL COMPOUND FOR TREATING INTRACTABLE DISEASES” (YJ CERAPEUTICS INC., priority 2023, published 2026).

Legend:
sedation = assay: Sedation as side effect of the drug; type: in vivo, Sprague-Dawley rats
[1] = test system: neuropathic pain (mechanical allodynia) in SCI, LSS and SNI animal models; assay: Mechanical allodynia (von Frey, 50% threshold) in SCI, LSS and SNI neuropathic pain models; type: in vivo, Sprague-Dawley rats; conditions: i.p. 5 mg/kg; at 1 hour after administration
Experimental: To be used as a central nerve injury animal model, a traumatic spinal cord injury (SCI) model was prepared (FIG. 1A). Specifically, 230 to 250 g of male adult Sprague-Dawley rats were anesthetized by intraperitoneal injection of chloral hydrate (500 mg/kg), and then the back and neck regions were shaved, and the spinal cord under the back and neck regions was exposed without damaging the dura mater, and a laminectomy was performed at T9 to T10 levels. To stabilize the spine, the spinous processes of T8 and T11 were fixed, and the spine was damaged by free-falling a 10 g weight from a height of 25 mm using an NYU impactor onto the back surface of the exposed spinal cord and then the rats were left in a temperature and humidity-controlled chamber overnight while covering the muscles and skin. After surgery, the rats were subcutaneously injected with a supplement solution (5 ml, lactated ringer) and injected with antibiotics (gentamicin, 5 mg/kg, intramuscular injection) once daily for 5 days. The body weight, remaining food, and the weight of water were confirmed and recorded for all animals, and the bladder was emptied twice daily by passive bladder massage until reflex micturition was established. At this time, a Sham group was a group that was subjected to only laminectomy without damage.
To be used as a peripheral nerve injury animal model, a lumbar spinal stenosis (LSS) model was prepared (FIG. 1B). Specifically, 260 to 280 g of adult male Sprague-Dawley rats were anesthetized with intraperitoneal injection of chloral hydrate (500 mg/kg), the back region was shaved, and then the spinal plate was exposed at L4 to S2 levels. After removing the ligamentous section between L4 and L5, a trapezoidal silicone block (1.00 mm long×1.3 to 1.2 mm wide×1.0 mm high) was inserted into the epidural space below the L5 and L6 spinal plates without damaging the dural sac. At this time, a Sham group was a group that was subjected to only posterior […] on the animal without inserting a silicone block.
To be used as a peripheral nerve injury animal model, a sciatic nerve injury (SNI) model was prepared (FIG. 1C). Specifically, 200 to 220 g of male adult Sprague-Dawley rats were anesthetized by intraperitoneal injection of chloral hydrate (500 mg/kg), and then three terminal branches (tibial, common peroneal, and sural nerves) of the right sciatic nerve were approached, and the tibia nerve and the peroneal nerve were tightly ligated with 4-0 silk, and neurectomy was performed at a distal 3 mm position of the ligation site. At this time, a Sham group was a group that exposed only the sciatic nerve without damage.
In order to confirm a neuropathic pain inhibitory effect of YJ102 (Chemical Formula 1), a compound of the present disclosure, in the three nerve injury animal models prepared in Example 1 above, rats having pain on week 3 (SNI model) or week 4 (SCI model and LSS model) after surgery were selected and administered orally (p.o.) at 10 mg/kg or 20 mg/kg of YJ102 dissolved in a solution of DMSO, methyl pyrrolidinone, and water (1:1.5:1), or intraperitoneally injected (i.p. injection) at 1, 2, or 5 mg/kg of YJ102. In a positive control group, gabapentin or pregabalin dissolved in saline was intraperitoneally injected at a concentration of 5 mg/kg, and in a Vehicle group, the same amount of a solution of DMSO, methyl pyrrolidinone, and water was administered. Thereafter, in order to measure mechanical allodynia, the rats were located at the bottom of a transparent plastic box (10 cm×10 cm) on top of a wire mesh (3 mm×3 mm) and subjected to an adaptation period for approximately 20 minutes. Von-Frey filaments were applied to the soles of both paws and used with stiff nylon von-Frey monofilament series ([…], Stoelting, WoodDale, IL, USA; equivalent in grams to 0.4, 0.6, 1.0, 2.0, 4.0, 6.0, 8.0 and 15.0) with logarithmic increases in tactile (mechanical) sensitivity. […]

**Q.** Which results are given for `NCC1(CC(=O)O)CCCCC1` [gabapentin, reference compound]?
**A.** sedation (sedation; 50 mg/kg): sedation as a side effect of the drug was observed; analgesic effect [1]: significant analgesic effect

**Q.** `CC(C)C[C@H](CN)CC(=O)O` [pregabalin, reference compound] was tested. Which sedation (sedation; 20 mg/kg) did it give?
**A.** sedation as a side effect of the drug was observed

**Q.** What about the analgesic effect [1] of the same compound?
**A.** significant analgesic effect
